Data taken from patent US20050107386A1, “Methods of treating diseases and disorders by targeting multiple kinases” (priority 2003, published 2005).

Key:
Assay type in all cases: biochemical
CK2(h) = CK2(h) (Homo sapiens, UniProt P68400); assay: CK2(h) kinase assay; conditions: 3 μM; percent of control kinase activity
Experimental: (§1) Six compounds (presumptive single agents) were tested against a panel of 50 kinases. The results are presented in Table 2; numbers for each kinase indicate the percent of control kinase activity in the presence of a 3μM concentration of the indicated agent.
(§2) Agents that target two or more different kinases are useful in the methods of the invention as described elsewhere herein. Such compounds may be identified, and their effect on certain kinases may be identified, using the assays briefly described below in Examples 4-83. Each of these assays was carried out as described in Davies et al., Biochem. J., 351:95-105 (2000). All assays were carried out at 10 μM ATP unless otherwise noted.
In a final reaction volume of 25 μl, CK2(h) (5-10 mU) is incubated with 20 mM Hepes pH 7.6, 0.15 M NaCl, 0.1 mM EDTA, 5 mM DTT, 0.1% Triton X-100, 165 μM […] (SEQ ID NO:6), 10 mM MgAcetate and [γ-^33P-ATP] (specific activity approx. 500 cpm/pmol, concentration as required). The reaction is initiated by the addition of Mg^2+ [γ-^33P-ATP]. After incubation for 40 minutes at room temperature, the reaction is stopped by the addition of 5 μl of a 3% phosphoric acid solution. 10 μl of the reaction is then spotted onto a P30 filtermat and washed three times for 5 minutes in 75 mM phosphoric acid and once in methanol prior to drying and scintillation counting.

MEK1(h) = MEK1(h) (Homo sapiens, UniProt Q02750); assay: MEK1(h) kinase assay; conditions: for Inhibitory activity (% of control), MEK1(h): 3 μM, percent of control kinase activity
MEK1(h), sequence (Q02750 whole entry): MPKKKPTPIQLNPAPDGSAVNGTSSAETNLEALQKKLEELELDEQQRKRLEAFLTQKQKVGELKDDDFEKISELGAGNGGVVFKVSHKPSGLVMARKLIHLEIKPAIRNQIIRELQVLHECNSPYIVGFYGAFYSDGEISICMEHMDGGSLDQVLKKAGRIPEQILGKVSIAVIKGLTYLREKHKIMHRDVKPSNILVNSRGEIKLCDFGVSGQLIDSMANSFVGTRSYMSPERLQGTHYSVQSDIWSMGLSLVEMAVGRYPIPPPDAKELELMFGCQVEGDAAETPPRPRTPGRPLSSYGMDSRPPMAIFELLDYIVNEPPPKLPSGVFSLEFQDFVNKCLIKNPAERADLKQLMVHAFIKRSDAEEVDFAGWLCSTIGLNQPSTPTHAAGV
Experimental: as §1, §2
The reaction is initiated by the addition of the MgATP. After incubation for 40 minutes at room temperature, 5 μl of this incubation mix is used to initiate a MAPK2 (m) assay, which is described on […].

PDGFRβ(h) = PDGFRβ(h) (Homo sapiens, UniProt P09619); assay: PDGFRβ(h) kinase assay; conditions: 3 μM; percent of control kinase activity
PDGFRβ(h), sequence (P09619 33-1106): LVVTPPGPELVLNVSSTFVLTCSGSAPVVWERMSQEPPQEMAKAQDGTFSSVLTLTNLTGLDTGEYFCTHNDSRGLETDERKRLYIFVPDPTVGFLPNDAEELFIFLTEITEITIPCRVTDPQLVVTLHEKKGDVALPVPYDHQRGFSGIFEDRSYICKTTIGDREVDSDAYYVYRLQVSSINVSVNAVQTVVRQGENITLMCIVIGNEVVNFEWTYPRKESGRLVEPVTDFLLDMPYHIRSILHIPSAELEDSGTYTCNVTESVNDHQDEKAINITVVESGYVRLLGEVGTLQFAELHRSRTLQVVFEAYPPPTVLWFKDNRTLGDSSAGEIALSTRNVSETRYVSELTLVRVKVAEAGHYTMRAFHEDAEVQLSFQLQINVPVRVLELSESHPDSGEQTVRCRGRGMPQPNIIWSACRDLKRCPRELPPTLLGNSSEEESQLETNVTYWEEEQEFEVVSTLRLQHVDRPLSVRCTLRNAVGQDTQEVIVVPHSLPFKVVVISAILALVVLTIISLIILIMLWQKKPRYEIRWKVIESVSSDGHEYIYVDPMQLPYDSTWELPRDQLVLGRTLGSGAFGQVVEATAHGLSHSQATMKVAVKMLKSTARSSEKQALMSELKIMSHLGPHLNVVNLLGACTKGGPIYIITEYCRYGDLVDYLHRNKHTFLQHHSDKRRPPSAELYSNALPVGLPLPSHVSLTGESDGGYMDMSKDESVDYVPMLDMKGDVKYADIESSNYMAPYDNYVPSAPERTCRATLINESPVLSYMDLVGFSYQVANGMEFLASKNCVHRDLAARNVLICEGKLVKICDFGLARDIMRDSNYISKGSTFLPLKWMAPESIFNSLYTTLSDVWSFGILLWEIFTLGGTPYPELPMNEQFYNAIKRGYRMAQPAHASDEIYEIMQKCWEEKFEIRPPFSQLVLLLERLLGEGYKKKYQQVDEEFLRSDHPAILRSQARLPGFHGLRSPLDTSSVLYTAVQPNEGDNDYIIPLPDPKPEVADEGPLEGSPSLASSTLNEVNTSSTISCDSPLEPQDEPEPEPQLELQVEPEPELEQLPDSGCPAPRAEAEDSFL
Experimental: as §1, §2
(§3) In a final reaction volume of 25 μl, PDGFRβ (h) (5-10 mU) is incubated with 8 mM MOPS pH 7.0, 0.2 mM EDTA, 0.1 mg/ml poly(Glu, Tyr) 4:1, 10 mM MnCl2, 10 mM MgAcetate and [γ-^33P-ATP] (specific activity approx. 500 cpm/pmol, concentration as required). The reaction is initiated by the addition of Mg^2+ [γ-^33P-ATP]. After incubation for 40 minutes at room temperature, the reaction is stopped by the addition of 5 μl of a 3% phosphoric acid solution. 10 μl of the reaction is then spotted onto a Filtermat A and washed three times for 5 minutes in 75 mM phosphoric acid and once in methanol prior to drying and scintillation counting.

CDK2/cyclinA(h) = CDK2/cyclinA(h) (Homo sapiens, UniProt P24941); assay: CDK2/cyclinA(h) kinase assay; conditions: for Inhibitory activity (% of control), CDK2/cyclinA(h): 3 μM, percent of control kinase activity
Experimental: as §1, §2
as §3, with “μl, CDK2/cyclinA” for “μl, PDGFRβ”, “mg/ml histone H1,” for “mg/ml poly(Glu, Tyr) 4:1, 10 mM MnCl2,”, “and [γ-^33p-ATP]” for “and [γ-^33P-ATP]”, “a P30 filtermat” for “a Filtermat A”

SGK(h) = target: T1, SGK(h) (Homo sapiens, UniProt O00141); assay: SGK(h) kinase assay; conditions: 3 μM; percent of control kinase activity
T1 sequence (O00141 1-431): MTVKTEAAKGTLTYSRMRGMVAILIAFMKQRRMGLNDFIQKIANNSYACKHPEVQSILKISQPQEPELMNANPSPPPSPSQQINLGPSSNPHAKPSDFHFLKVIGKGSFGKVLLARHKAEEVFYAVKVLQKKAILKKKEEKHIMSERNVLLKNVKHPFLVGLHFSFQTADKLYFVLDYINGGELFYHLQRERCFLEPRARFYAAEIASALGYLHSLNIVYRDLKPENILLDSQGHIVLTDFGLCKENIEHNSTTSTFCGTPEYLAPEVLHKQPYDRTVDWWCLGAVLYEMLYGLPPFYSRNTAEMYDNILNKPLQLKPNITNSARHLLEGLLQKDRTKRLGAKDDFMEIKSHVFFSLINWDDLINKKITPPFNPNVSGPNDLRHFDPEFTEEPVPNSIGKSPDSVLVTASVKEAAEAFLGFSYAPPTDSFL
Experimental: as §1, §2
as §3, with “SGK(h)” for “PDGFRβ (h)”, “30 μM […] (SEQ ID NO:2),” for “0.1 mg/ml poly(Glu, Tyr) 4:1, 10 mM MnCl2,”, “Mg^2+[γ-^33P-ATP].” for “Mg^2+ [γ-^33P-ATP].”, “P30 filtermat” for “Filtermat A”

cSRC(h) = cSRC(h) (Homo sapiens, UniProt P12931); assay: cSRC(h) kinase assay; conditions: for Inhibitory activity (% of control), cSRC(h): 3 μM, percent of control kinase activity
cSRC(h), sequence (P12931 whole entry): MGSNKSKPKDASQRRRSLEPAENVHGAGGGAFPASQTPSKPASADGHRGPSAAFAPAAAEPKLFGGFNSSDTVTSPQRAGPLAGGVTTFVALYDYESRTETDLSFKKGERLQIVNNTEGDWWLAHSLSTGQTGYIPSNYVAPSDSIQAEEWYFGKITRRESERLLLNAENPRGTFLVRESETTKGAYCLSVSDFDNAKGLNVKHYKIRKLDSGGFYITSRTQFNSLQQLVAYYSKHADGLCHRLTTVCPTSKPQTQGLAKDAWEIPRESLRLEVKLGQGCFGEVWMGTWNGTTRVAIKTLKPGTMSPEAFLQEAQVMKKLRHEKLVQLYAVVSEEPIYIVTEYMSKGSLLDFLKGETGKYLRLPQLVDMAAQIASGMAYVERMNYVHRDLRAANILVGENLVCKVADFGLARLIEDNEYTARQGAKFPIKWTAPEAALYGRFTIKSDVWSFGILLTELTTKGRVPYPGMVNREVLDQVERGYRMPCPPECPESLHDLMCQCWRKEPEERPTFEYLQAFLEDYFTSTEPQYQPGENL
Experimental: as §1, §2
as §3, with “cSRC” for “PDGFRβ”, “250 μM […] (Cdc2 peptide; SEQ ID NO:7),” for “0.1 mg/ml poly(Glu, Tyr) 4:1, 10 mM MnCl2,”, “(Specific” for “(specific”, “P30 filtermat” for “Filtermat A”

CK2(h), sequence (P68400 whole entry): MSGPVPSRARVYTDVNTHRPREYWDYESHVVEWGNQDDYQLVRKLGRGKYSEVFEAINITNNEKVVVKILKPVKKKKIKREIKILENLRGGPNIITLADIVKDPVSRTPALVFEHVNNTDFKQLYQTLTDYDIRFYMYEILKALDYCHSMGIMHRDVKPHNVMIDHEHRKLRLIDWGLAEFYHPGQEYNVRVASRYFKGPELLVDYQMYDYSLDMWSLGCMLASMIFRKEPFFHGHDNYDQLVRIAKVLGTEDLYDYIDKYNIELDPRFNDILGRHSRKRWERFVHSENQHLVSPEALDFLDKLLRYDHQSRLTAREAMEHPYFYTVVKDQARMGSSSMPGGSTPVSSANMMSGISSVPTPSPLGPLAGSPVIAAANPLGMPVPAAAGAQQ
CK2(h), sequence (P67870 whole entry partner): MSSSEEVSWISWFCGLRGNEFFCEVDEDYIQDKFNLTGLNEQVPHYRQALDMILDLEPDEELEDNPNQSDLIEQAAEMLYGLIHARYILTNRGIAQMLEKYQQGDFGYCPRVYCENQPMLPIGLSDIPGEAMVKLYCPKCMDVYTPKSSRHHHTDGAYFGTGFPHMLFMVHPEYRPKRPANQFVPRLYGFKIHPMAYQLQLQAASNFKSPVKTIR

Row | Structure (SMILES) | Inhibitory activity (% of control), CK2(h) (CK2(h)) | Inhibitory activity (% of control), MEK1(h) (MEK1(h)) | Inhibitory activity (% of control), PDGFRβ(h) (PDGFRβ(h)) | Inhibitory activity (% of control), CDK2/cyclinA(h) (CDK2/cyclinA(h)) | Inhibitory activity (% of control), SGK(h) (SGK(h)) | Inhibitory activity (% of control), cSRC(h) (cSRC(h)) | inhibitory activity against MEK1, in words (MEK1(h); summary of Table 2) | inhibitory activity against CDK2, in words (CDK2/cyclinA(h); summary of Table 2) | inhibitory activity against cSrc, in words (cSRC(h); summary of Table 2)
1 | COc1ccc2cc(-c3n[nH]c4ccc(-c5n[nH]c(CN6CCOCC6)n5)cc34)ccc2c1 [CC001, 3-(6-Methoxynaphthalen-2-yl)-5-(5-Morpholin-4-Ylmethyl-1H-[1,2,4]Triazol-3-yl)-1H-Indazole] | 45 % of control | 4 % of control | 94 % of control | 4 % of control | 56 % of control | 2 % of control | – | – | –
2 | CC(C)Cc1nc(-c2ccc3[nH]nc(-c4ccc5cc(OCCN6CCCC6)ccc5c4)c3c2)n[nH]1 [CC002, 5-(5-Isobutyl-1H-[1,2,4]Triazol-3-yl)-3-[6-(2-Pyrrolidin-1-yl-Ethoxy)-Naphthalen-2-yl]-1H-Indazole] | 41 % of control | – | – | – | – | – | – | – | –
3 | CC(C)(C)Cc1nc(-c2ccc3[nH]nc(-c4ccc5cc(OCc6ccccn6)ccc5c4)c3c2)n[nH]1 [CC004, 5-[5-(2,2-Dimethyl-propyl)-1H-[1,2,4]triazol-3-yl]-3-[6-(pyridine-2-ylmethoxy)-naphthalen-2-yl]-1H-indazole] | 98 % of control | 11 % of control | 91 % of control | 2 % of control | 33 % of control | 67 % of control | good inhibitory activity | good inhibitory activity | somewhat less inhibitory activity
4 | CCN1CCC[C@H]1COc1ccc2cc(-c3n[nH]c4ccc(-c5nc(CC(C)(C)C)n[nH]5)cc34)ccc2c1 [CC005, 2-[((2s)-1-ethylpyrrolidin-2-yl)methoxy]-6-{5-[3-(2,2-Dimethylpropyl)(1H-1,2,4,-triazol-5-yl)](1H-indazol-3-yl)}naphthalene] | 74 % of control | 2 % of control | 20 % of control | 2 % of control | 4 % of control | 3 % of control | – | – | –
5 | Fc1ccc(-c2n[nH]c3ccc(-c4n[nH]c(C5CCCC5)n4)cc23)cc1 [CC006, 5-(5-Cyclopentyl-1H-[1,2,4]triazol-3-yl)-3-(4-fluoro-phenyl)-1H-indazole, reference compound] | 50 % of control | – | – | – | – | – | – | – | –
6 | O=C(NC1CCCC1)c1cccc(-c2n[nH]c3ccc(-c4nc[nH]n4)cc23)c1 [CC007, 3-(5-(1H-1,2,4-triazol-3-yl)(1H-indazol-3-yl))phenyl-N-cyclopentylcarboxamide, reference compound] | 27 % of control | – | – | – | – | – | – | – | –
